Tests used:
[1] = molecular target: T1, Glutamine synthetase (GS) (Mus musculus, UniProt P15105); assay: thermal shift (SyproOrange differential scanning fluorimetry); format: binding; conditions: varying MgCl2 and ATP; HEPES pH 7.5, 300 mM NaCl, 10% glycerol, 500 μM TCEP
T1 construct: gene Glul; pET-24a(+) plasmid pNG189, codon optimised; E. coli BL21(DE3); HisTrap and Superdex 200; homomeric decamer

[2] = molecular target: T1, Glutamine synthetase (GS); assay: gamma-glutamyl hydroxamate assay, absorbance […] nm; format: biochemical
[3] = molecular target: T2, Glutamine synthetase (GS) (Mus musculus, UniProt P15105, T301E); assay: gamma-glutamyl hydroxamate assay, absorbance […] nm; format: biochemical
T2 construct: gene Glul; pET-24a(+) plasmid pNG189, codon optimised; E. coli BL21(DE3); HisTrap and Superdex 200; homomeric decamer

[4] = molecular target: T3, Glutamine synthetase (GS) (Mus musculus, UniProt P15105, T301A); assay: gamma-glutamyl hydroxamate assay, absorbance […] nm; format: biochemical
T3 construct: gene Glul; pET-24a(+) plasmid pNG189, codon optimised; E. coli BL21(DE3); HisTrap and Superdex 200; homomeric decamer

[5] = molecular target: T4, Glutamine synthetase (GS) (Mus musculus, UniProt P15105, T301V); assay: gamma-glutamyl hydroxamate assay, absorbance […] nm; format: biochemical
T4 construct: gene Glul; pET-24a(+) plasmid pNG189, codon optimised; E. coli BL21(DE3); HisTrap and Superdex 200; homomeric decamer

[6] = substrate: N[C@@H](CCC(=O)O)C(=O)O; assay: purified protein; format: biochemical, Mus musculus; conditions: unphosphorylated GS (PKA + PKI), 20 mM ATP, 20 mM hydroxylamine, 20 mM MgCl2, imidazole pH 7.4, room temperature

T4 sequence (P15105 2-373 T301V): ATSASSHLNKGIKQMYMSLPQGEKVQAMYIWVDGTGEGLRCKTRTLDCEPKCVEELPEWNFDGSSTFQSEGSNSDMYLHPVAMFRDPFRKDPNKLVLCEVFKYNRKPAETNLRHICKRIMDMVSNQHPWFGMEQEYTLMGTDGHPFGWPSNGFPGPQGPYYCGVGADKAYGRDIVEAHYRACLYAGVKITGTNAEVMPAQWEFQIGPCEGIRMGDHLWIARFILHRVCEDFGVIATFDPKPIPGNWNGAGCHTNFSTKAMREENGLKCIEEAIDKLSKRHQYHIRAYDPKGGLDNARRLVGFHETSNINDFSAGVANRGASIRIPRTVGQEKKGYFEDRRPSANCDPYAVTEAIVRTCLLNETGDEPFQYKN
T3 sequence (P15105 2-373 T301A): as the sequence (P15105 2-373 T301V) above, with V300A counted along it
T2 sequence (P15105 2-373 T301E): as the sequence (P15105 2-373 T301V) above, with V300E counted along it

## Nc1ncnc2c1ncn2[C@@H]1O[C@H](COP(=O)(O)OP(=O)(O)OP(=O)(O)O)[C@@H](O)[C@H]1O [ATP]
[1]
  Tm: incubation with MgATP increased their melting temperatures to similar extents

## CS(=N)(=O)CC[C@H](N)C(=O)O (stereo partly drawn) [methionine sulfoximine]
[2]
  IC50: 0.182 ± 0.014 mM
[3]
  IC50: > 100 mM
[4]
  IC50: > 100 mM
[5]
  IC50: 7.6 ± 0.5 mM

B1: Glutamine synthetase (GS) (Mus musculus) (protein)
chain: ATSASSHLNKGIKQMYMSLPQGEKVQAMYIWVDGTGEGLRCKTRTLDCEPKCVEELPEWNFDGSSTFQSEGSNSDMYLHPVAMFRDPFRKDPNKLVLCEVFKYNRKPAETNLRHICKRIMDMVSNQHPWFGMEQEYTLMGTDGHPFGWPSNGFPGPQGPYYCGVGADKAYGRDIVEAHYRACLYAGVKITGTNAEVMPAQWEFQIGPCEGIRMGDHLWIARFILHRVCEDFGVIATFDPKPIPGNWNGAGCHTNFSTKAMREENGLKCIEEAIDKLSKRHQYHIRAYDPKGGLDNARRLTGFHETSNINDFSAGVANRGASIRIPRTVGQEKKGYFEDRRPSANCDPYAVTEAIVRTCLLNETGDEPFQYKN
notes: pET-24a(+) plasmid pNG189, codon optimised; E. coli BL21(DE3); HisTrap and Superdex 200; homomeric decamer
[6]
  Km: 21 ± 1 mM
